Holding throughout (assay type): cell-based, human
In assay [1] the test system is A2058 cells (BRAF V600E). The assay can be described thus: Proliferation inhibition (CellTiter-Glo), A2058. The settings on record: A2058, 3 days; read-out: A2058 Prolif. EC50. As for the experimental part: (§1) All cancer cell lines (A375, A101D, A2058, RKO, HT29 SK-MEL 30, IPC298, HepG2, HCT-116, Lovo, SWV620, SW480, NCI-H358, NCI-H2122, Calu-6, NCIH2087, NCIH1755, NCIH1666 and Mewo) were obtained from ATCC and cultured in RPMI-1640 medium (Gibco) supplemented with 5% heat inactivated fetal bovine serum (FBS, Wisent) at 37° C. under 5% CO2. Cells were maintained in T175 flasks (Greiner). They were passaged by removing the culture medium, washing once in 10 mL of room temperature Phosphate Buffered Saline (PBS; Wisent) and incubating at 37° C. with 2 mL of 0.05% Trypsin (Thermo-Fisher). […]
(§2) After 3 days of incubation, the growth media were removed by aspiration and 60 μL of diluted CellTiter-Glo® reagent (10 μL CellTiter-Glo® reagent+50 μL of PBS) was added to each well. […] Luminescence signals were then acquired on a Synergy Neo2 plate reader (Biotek).
(§3) The effect of each compound dilution on the proliferation of cancer cell lines was expressed in % inhibition and calculated as follows. […]
(§4) The ability of each compound to inhibit proliferation was expressed as a EC50 value obtained by plotting the effect values for each data point of a dilution series and fitting the obtained curves using a log(agonist) versus response-variable slope (four parameters) function using GraphPadPrism (V7.0) or Dotmatics Screening Ultra platform.

Assay [2] deals with NCI-H2122 cells (KRAS-G12C). The assay can be described thus: Proliferation inhibition (CellTiter-Glo), NCI-H2122. The conditions noted are these: NCI-H2122, 3 days, read-out: NCI-H2122 Prolif. EC50. As for the experimental part:
(§5) All cancer cell lines (A375, A101D, A2058, RKO, HT29 SK-MEL 30, IPC298, HepG2, HCT-116, Lovo, SWV620, SW480, NCI-H358, NCI-H2122, Calu-6, NCIH2087, NCIH1755, NCIH1666 and Mewo) were obtained from ATCC and cultured in RPMI-1640 medium (Gibco) supplemented with 5% heat inactivated fetal bovine serum (FBS, Wisent) at 37° C. under 5% CO2. Cells were maintained in T175 flasks (Greiner). They were passaged by removing the culture medium, washing once in 10 mL of room temperature Phosphate Buffered Saline (PBS; Wisent) and incubating at 37° C. with 2 mL of 0.05% Trypsin (Thermo-Fisher). Trypsin was then inactivated by adding complete growth medium and the cells were then replated in a T175 culture dish at the appropriate dilution. All cell lines were routinely tested for mycoplasma contamination. Tissue type and mutational status of each cell line can be found in Table B.
(§6) CellTiter-Glo® viability analysis was conducted on cells plated in 100 μL of complete RPMI-1640 growth medium in 96-well flat-bottomed white opaque plates (Greiner or Croning) at a density indicated in Table E (for each CCL, number of cells plated per well of a 96-well plate to perform the CellTiter-Glo® cell viability assay). The cell density in cells/cm^2 would correspond to cell number divided by the area of one well of a 96-well plate (0.32 cm^2). […]
as §2, §3, §4
(ATP-based viability assays read luminescence as a measure of living cells.)

Assay [3] deals with NCIH1755 cells (BRAF G469A). Description: Proliferation inhibition (CellTiter-Glo), NCIH1755. The settings on record: NCIH1755, 3 days, read-out: NCIH1755 Prolif. EC50. As for the experimental part: as §5, §6, §2, §3, §4
Assay [4] concerns A101D cells (BRAF V600E). Description: Proliferation inhibition (CellTiter-Glo), A101D. The conditions noted are these: 3 days, read-out: A101D Prolif. EC50. As for the experimental part: as §1, §2, §3, §4
The subject of assay [5] is pERK in NCI-H358 cells (KRAS-G12C). Description: Phospho-ERK inhibition (AlphaLISA), NCI-H358. The conditions noted are these: for IC50: NCI-H358; for NCI-H358 pERK % Ymin: NCI-H358, value in parentheses. The method, then: as §5
AlphaLISA® SureFire® Ultra™ p-ERK 1/2 (Thr202/Tyr204) analysis was conducted on cells plated in 100 μL of complete RPMI-1640 growth medium in 96-well flat-bottomed transparent dishes (Costar) at a density indicated in Table C. Cells were maintained overnight at 37° C. under 5% CO2 before treatment with compounds' dilution series for one hour. The cell density in cells/cm^2 corresponds to cell number divided by the area of one well of a 96-well plate ([…]).
In a dilution series 100 μL/well of test substance dilution prepared in complete RPMI-1640 growth media was added to the cells. The dilution series is selected so that ten concentrations cover a range from 10 μM to 0.33 nM. If necessary the initial concentration of 10 μM is increased to 100 μM or lowered to 1 μM (as in the case of A375 and H1666 cells, which are generally more sensitive to the compounds) and further dilution is carried out accordingly. The final concentration of DMSO in the assay is set at 0.5%.
After treatment, media was removed and cells were lysed in 50 μL of 1× AlphaScreen Ultra Lysis Buffer (Perkin Elmer). The AlphaLISA® SureFire® Ultra™ p-ERK 1/2 (Thr202/Tyr2O4) (PerkinElmer) reactions were performed with 5 μL of cell lysate according to the manufacturer's specifications in 384-well proxyplates (Perkin Elmer) followed by overnight incubation of the reactions at room temperature in a humidified chamber. After completion of the reactions, the signals were recorded on an EnVision plate reader (Perkin Elmer) using built in AlphaLISA® settings.
The effect of each compound dilution on the pERK signal was expressed in % inhibition and calculated as follows. An internal 100% inhibition control ([…] trametinib, cat #HY-10999; MedChem Express; CAS #871700-17-3) was included in each plate and used as a measure of pERK background. First, the value obtained for trametinib was subtracted from each data point. The average of DMSO (vehicle) controls (set as 0% inhibition) was established and used to calculate % inhibition: % inhibition=100*(1-((pERK signalcompound)/(pERK signalDMSO)))
The ability of each compound to inhibit pERK signal was expressed as an IC50 value obtained by plotting the inhibition values for each data point of a dilution series and fitting the obtained curves using a log(agonist) versus response-variable slope (four parameters) function using GraphPadPrism (V7.0) or Dotmatics Screening Ultra platform.
When present, paradoxical pERK induction is inferred from the negative % inhibition values observed in the pERK IC50 curves of a compound.
In general terms: Alpha assays give light when donor and acceptor beads are brought close together.

Assay [6] deals with Calu-6 cells (KRAS Q61K). The assay can be described thus: Proliferation inhibition (CellTiter-Glo), Calu-6. The conditions noted are these: Calu6, 3 days, read-out: Calu6 Prolif. EC50. As for the experimental part: as §5, §6, §2, §3, §4

The structures appear in SMILES notation. Read-outs that look alike come from different tables or passages of the source.

As usually defined, the EC50 is the concentration that produces a half-maximal response. As a reminder, the IC50 is the point on the concentration scale where inhibition reaches its midpoint. On to `Nc1cccc2c1ncn2-c1ccc2ncnc(Nc3c(F)ccc(NS(=O)(=O)c4cccc(Cl)c4Cl)c3F)c2n1` [Example 99], for which the EC50 in assay [1] is below 30 nM; in assay [2] it was 300 to 3000 nM; in assay [3], below 30 nM; in assay [4], below 30 nM; in assay [6], 300 to 3000 nM. The compound also came in with an IC50 in assay [5] of 30 to 300 nM. Moreover, the “NCI-H358 pERK % Ymin” value in assay [5] came out at 11%.

Consider `CC1(O)CCN(c2cccc3c2ncn3-c2ccc3ncnc(Nc4c(F)ccc(NS(=O)(=O)c5cccc(Cl)c5Cl)c4F)c3n2)CC1` [Example 524], for which the EC50 was below 30 nM in assay [1]; 300 to 3000 nM in assay [2]; 300 to 3000 nM in assay [3]; below 30 nM in assay [4]; 300 to 3000 nM in assay [6]. Further, in assay [5], the IC50 was in the range of 30 to 300 nM. In assay [5], the “NCI-H358 pERK % Ymin” value is listed as −13%.

In the case of `Cc1ccc2c(Nc3cccc(Cl)c3F)nccc2c1NC(=O)c1csc2c(N)ncnc12` [Belvarafenib, reference compound], the EC50 is 300 to 3000 nM in assay [2] (Homo sapiens, 72 h); above 3000 nM in assay [3] (Homo sapiens, NCI-H1755, 72 h); below 30 nM in assay [6] (Homo sapiens, Calu-6, 72 h). This compound yielded an IC50 in assay [5] (Homo sapiens) of 30 to 300 nM. For the same compound, the “NCI-H358 pERK % Ymin” value in assay [5] is given as −122%.
